PubChem BioAssay (NCI)
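96-well plates; 48 h exposure; 5 concentrations. Endpoints by linear interpolation between flanking doses. Not reached: highest tested concentration assigned. GI50 is the concentration that inhibits growth by half. TGI denotes the concentration required for complete inhibition of growth.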

Legend:
Assay in all cases: NCI anticancer screen, dose series, 48 h
[1] = test system: TK-10 renal
[2] = test system: HOP-92 NSCLC
[3] = test system: BT-549 breast
[4] = test system: NCI-H23 lung
[5] = test system: SF-295 CNS
[6] = test system: NCI/ADR-RES ovarian
[7] = test system: NCI-H522 lung
[8] = test system: HCC-2998 colon
[9] = test system: SK-MEL-2 melanoma
[10] = test system: A549 NSCLC

## COc1cc(OC)c(/C=C/c2cnc3ccccc3n2)c(OC)c1
[1]
  TGI: > 10 µM
[2]
  TGI: > 10 µM
[3]
  TGI: > 10 µM
[4]
  TGI: > 10 µM
[5]
  TGI: > 10 µM
[6]
  TGI: > 10 µM
[7]
  TGI: > 10 µM
[8]
  TGI: > 10 µM
[9]
  TGI: > 10 µM
[10]
  TGI: > 10 µM

## COc1cc2c(cc1Nc1nc(Nc3ccsc3C(N)=O)c3cc[nH]c3n1)N(C(=O)CN(C)C)CCC2(C)C
[1]
  GI50: 1360 nM
  TGI: 4.97 µM
[2]
  GI50: < 2.5 nM
  TGI: 0.833 µM
[3]
  GI50: 2010 nM
  TGI: 5.6 µM
[4]
  GI50: 791 nM
  TGI: 5.15 µM
[5]
  GI50: 3330 nM
  TGI: 7.39 µM
[6]
  GI50: 2010 nM
  TGI: 8.49 µM
[7]
  GI50: 764 nM
  TGI: 3.76 µM
[8]
  GI50: 485 nM
  TGI: 4.47 µM
[9]
  GI50: 515 nM
  TGI: 3.63 µM
[10]
  GI50: 975 nM
  TGI: 4.69 µM

## O=C(NCc1ccc(Cn2c(=O)sn(-c3ccccc3)c2=O)cc1)OCc1ccc2c(Br)cc(Br)c(O)c2n1
[1]
  GI50: 404 nM
  TGI: 1.39 µM
[2]
  GI50: 379 nM
  TGI: 1.84 µM
[3]
  GI50: 614 nM
  TGI: 1.99 µM
[4]
  GI50: 1400 nM
  TGI: 3.06 µM
[5]
  GI50: 1600 nM
  TGI: 3.06 µM
[6]
  GI50: 1200 nM
  TGI: 7.06 µM
[7]
  GI50: 309 nM
  TGI: 1.08 µM
[8]
  GI50: 1800 nM
  TGI: 3.41 µM
[9]
  GI50: 1340 nM
  TGI: 2.82 µM
[10]
  GI50: 1510 nM
  TGI: 3.78 µM

## C=C1CCC2C(C)(C)CCC[C@]2(C)[C@H]1CO (stereo not given in full)
[1]
  GI50: > 100000 nM
  TGI: > 100 µM
[2]
  GI50: 74900 nM
  TGI: > 100 µM
[3]
  GI50: 47900 nM
  TGI: > 100 µM
[4]
  GI50: 46100 nM
  TGI: > 100 µM
[5]
  GI50: > 100000 nM
  TGI: > 100 µM
[6]
  GI50: 60300 nM
  TGI: > 100 µM
[7]
  GI50: 67600 nM
  TGI: > 100 µM
[8]
  GI50: 13500 nM
  TGI: 33 µM
[9]
  GI50: > 100000 nM
  TGI: > 100 µM
[10]
  GI50: 73900 nM
  TGI: > 100 µM

## COc1cc(O)c(C(=O)/C=C/c2ccc(O)cc2)c(O)c1[C@@H]1C[C@H](CCc2ccc(O)cc2)O[C@H](c2ccc(O)cc2)C1
[1]
  GI50: 4550 nM
  TGI: 17.1 µM
[2]
  GI50: 2000 nM
  TGI: 5.92 µM
[3]
  GI50: 4360 nM
  TGI: 17.6 µM
[4]
  GI50: 3140 nM
  TGI: 9.3 µM
[5]
  GI50: 4360 nM
  TGI: 17.8 µM
[6]
  GI50: 3720 nM
  TGI: 14.4 µM
[7]
  GI50: 2970 nM
  TGI: 9.94 µM
[8]
  GI50: 2250 nM
  TGI: 4.02 µM
[9]
  GI50: 3620 nM
  TGI: 17.5 µM

## CCNC(=O)c1cc2c(-c3cc(C(C)(C)O)ccc3Oc3c(C)cc(F)cc3C)cn(C)c(=O)c2[nH]1
[1]
  GI50: 298 nM
  TGI: 10.6 µM
[2]
  GI50: 257 nM
  TGI: 10.9 µM
[3]
  GI50: 2010 nM
  TGI: 11.4 µM
[4]
  GI50: 1890 nM
  TGI: 10.7 µM
[5]
  GI50: 2190 nM
  TGI: 11 µM
[6]
  GI50: 7490 nM
  TGI: 23.2 µM
[7]
  GI50: 1760 nM
  TGI: 14.2 µM
[8]
  GI50: 1660 nM
  TGI: 4.03 µM
[9]
  GI50: 2920 nM
  TGI: 15 µM
[10]
  GI50: 2100 nM
  TGI: 14.6 µM

## COc1ccc(Cn2cc3c(c2-c2ccc(OC)cc2)CCc2cnoc2-3)cc1
[1]
  GI50: 616 nM
  TGI: > 100 µM
[2]
  GI50: 1120 nM
  TGI: > 100 µM
[3]
  GI50: 760 nM
  TGI: > 100 µM
[4]
  GI50: 519 nM
  TGI: > 100 µM
[5]
  GI50: 270 nM
  TGI: 0.96 µM
[6]
  GI50: 270 nM
  TGI: 4.08 µM
[7]
  GI50: 199 nM
  TGI: 0.572 µM
[8]
  GI50: 846 nM
  TGI: 5.92 µM
[10]
  GI50: 582 nM
  TGI: > 100 µM

## Cc1cc(Cl)ccc1NC(=O)c1cc2ccccc2cc1O
[1]
  GI50: 1560 nM
  TGI: > 100 µM
[2]
  GI50: 146 nM
  TGI: 0.545 µM
[3]
  GI50: 673 nM
  TGI: > 100 µM
[4]
  GI50: 295 nM
  TGI: > 100 µM
[5]
  GI50: 2560 nM
  TGI: > 28.6 µM
[6]
  GI50: 433 nM
[7]
  GI50: 304 nM
  TGI: > 29.4 µM
[8]
  GI50: 3920 nM
  TGI: > 100 µM
[9]
  GI50: 432 nM
[10]
  GI50: 931 nM
  TGI: > 100 µM

## NC(=O)c1cc(-c2ccc(F)cc2)cc(-c2ccncc2)c1N
[1]
  GI50: > 25000 nM
  TGI: > 25 µM
[2]
  GI50: 23000 nM
  TGI: > 25 µM
[3]
  GI50: > 25000 nM
  TGI: > 25 µM
[4]
  GI50: > 25000 nM
  TGI: > 25 µM
[5]
  GI50: > 21700 nM
  TGI: > 25 µM
[6]
  GI50: > 25000 nM
  TGI: > 25 µM
[7]
  GI50: > 25000 nM
  TGI: > 25 µM
[8]
  GI50: > 25000 nM
  TGI: > 25 µM
[9]
  GI50: > 25000 nM
  TGI: > 25 µM
[10]
  GI50: > 25000 nM
  TGI: > 25 µM

## Cc1occc1C(=S)Nc1ccc(Cl)c(C(=O)OC(C)C2CC2)c1 (stereo not given)
[1]
  TGI: > 100 µM
[2]
  TGI: 51.5 µM
[3]
  TGI: 54.5 µM
[4]
  TGI: 40.1 µM
[5]
  TGI: 39 µM
[6]
  TGI: 65.1 µM
[7]
  TGI: 32.9 µM
[8]
  TGI: 39.5 µM
[9]
  TGI: 38.4 µM
[10]
  TGI: > 100 µM

## C=C1CC/C=C(\C)C(=O)C[C@@H]2[C@@H]1CC2(C)C
[1]
  TGI: 17.1 µM
[2]
  TGI: 6.4 µM
[3]
  TGI: 11.6 µM
[4]
  TGI: 15.4 µM
[5]
  TGI: 33.4 µM
[6]
  TGI: 46.6 µM
[7]
  TGI: 2.96 µM
[8]
  TGI: 12.7 µM
[9]
  TGI: 43.8 µM
[10]
  TGI: > 56 µM

## N#CSCC1CC(O)(c2ccccc2)CC(c2ccc(F)cc2)O1 (stereo not given)
[1]
  GI50: 2070 nM
  TGI: 5.77 µM
[2]
  GI50: 1930 nM
  TGI: 6.05 µM
[3]
  GI50: 1940 nM
  TGI: 4.31 µM
[4]
  GI50: 2020 nM
  TGI: 5.32 µM
[5]
  GI50: 1640 nM
  TGI: 3.34 µM
[6]
  GI50: 1920 nM
  TGI: 4.77 µM
[7]
  GI50: 1400 nM
  TGI: 3.1 µM
[8]
  GI50: 4020 nM
  TGI: 17.6 µM
[9]
  GI50: 1660 nM
  TGI: 3.39 µM
[10]
  GI50: 3860 nM
  TGI: 18.5 µM

## O=C(O)c1cccc(N=Nc2c(S(=O)(=O)O)ccc3c2C(=O)c2ccccc2C3=O)c1O
[1]
  TGI: > 100 µM
[2]
  TGI: > 100 µM
[3]
  TGI: > 100 µM
[4]
  TGI: > 100 µM
[5]
  TGI: > 100 µM
[6]
  TGI: > 100 µM
[7]
  TGI: > 100 µM
[9]
  TGI: > 100 µM
[10]
  TGI: > 100 µM

## c1cc(CNCCN2CCNCC2)ccn1
[1]
  TGI: 86.7 µM
[2]
  TGI: > 100 µM
[3]
  TGI: > 100 µM
[4]
  TGI: > 100 µM
[5]
  TGI: > 100 µM
[6]
  TGI: > 100 µM
[7]
  TGI: > 100 µM
[9]
  TGI: > 100 µM
[10]
  TGI: > 100 µM

## COc1ccc(Nc2c3ccccc3nc3ccccc23)cc1
[1]
  GI50: 2780 nM
  TGI: 13.7 µM
[2]
  GI50: 259 nM
  TGI: 2.93 µM
[3]
  GI50: 5990 nM
  TGI: 23.6 µM
[5]
  GI50: 904 nM
  TGI: 10.4 µM
[6]
  GI50: 545 nM
  TGI: 15.5 µM
[7]
  GI50: 1130 nM
  TGI: 15.7 µM
[8]
  GI50: 1920 nM
  TGI: 11.2 µM
[9]
  GI50: 1290 nM
  TGI: 11.3 µM
[10]
  GI50: 809 nM
  TGI: 11 µM
